This is an account of results in ChEMBL document CHEMBL1201862, “PubChem BioAssay data set” (2004).

The structures appear in SMILES notation. Activity calls are given as the source filed them.

One assay concerns the target Paired box protein Pax-8 (Homo sapiens, UniProt Q06710). The experiment in a line: PAX8 transcriptional activity inhibition in RMG-I – RMG-I cells, luciferase, cherry-pick, dose response (AID 687027).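 Also: luciferase reporter driven by Pax8 target thyroperoxidase promoter measured by SteadyGlo luminescence.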 In kind it is functional, cell-based.
A short description of assay [1]: toxicity to human hepatoma HepG2 cells – cell-based, cherry-picked samples, cytotoxicity control, dose response (AID 1159577). In kind it is functional.
The nature of assay [2]: general cell-killing toxicity readout – plate reader, dry powder samples, cytotoxicity control for PAX8 inhibitor project, dose response (AID 743021). The format is functional, cell-based.
Assay [3] in a line: IGROV1 cell killing – plate reader, dry powder samples, PAX8 inhibitor project, dose response (AID 743043). In kind it is functional, cell-based. The following applies: IGROV-1.
Assay [4] is described as follows: OVCAR-3 cell viability loss – plate reader, dry powder samples, PAX8 inhibitor project, dose response (AID 743044). The format is functional, cell-based.
The nature of assay [5]: P. falciparum Dd2 growth inhibitors, dose response, SYBR Green, cherry-picked samples (AID 1159567). The format is functional, cell-based.
Assay [6] in a line: reduced cellular PGC1a acetyl-lysine signal – cell-based, cherry-picked samples, dose response (AID 720514).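 Also: potency may reflect raised or lowered acetylation signal.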 In kind it is functional.
Assay [7] is described as follows: OVCAR8 cell viability loss – plate reader, dry powder samples, PAX8 project, dose response (AID 743197). The format is functional, cell-based. The settings on record: OVCAR-8.
Assay [8] has as its system Streptococcus sp. 'group A'. Nature of the assay: Streptococcus pyogenes SK(-)GAS viability under kanamycin – luminescence, BacTiterGlo, confirmation, counter-screen for streptokinase expression inhibitor project, dose response (AID 1900). In kind it is functional, organism-based.
A short description of assay [9]: cells. In kind it is functional, cell-based.
In the next assay the test system is HT-1080. Nature of the assay: HT1080 cell viability loss – fluorescence readout (AID 620). The settings on record: Homo sapiens. In kind it is functional, cell-based.
In assay [10] the target is Luciferin 4-monooxygenase (Photinus pyralis, UniProt P08659). The experiment in a line: Counter Screen for Luciferase-based Assay Positives. [Related pubchem assays: 620, 618, 411 ]. On the technique in general: Counterscreens check selectivity or assay interference.
Chain of Luciferin 4-monooxygenase (P08659 whole entry): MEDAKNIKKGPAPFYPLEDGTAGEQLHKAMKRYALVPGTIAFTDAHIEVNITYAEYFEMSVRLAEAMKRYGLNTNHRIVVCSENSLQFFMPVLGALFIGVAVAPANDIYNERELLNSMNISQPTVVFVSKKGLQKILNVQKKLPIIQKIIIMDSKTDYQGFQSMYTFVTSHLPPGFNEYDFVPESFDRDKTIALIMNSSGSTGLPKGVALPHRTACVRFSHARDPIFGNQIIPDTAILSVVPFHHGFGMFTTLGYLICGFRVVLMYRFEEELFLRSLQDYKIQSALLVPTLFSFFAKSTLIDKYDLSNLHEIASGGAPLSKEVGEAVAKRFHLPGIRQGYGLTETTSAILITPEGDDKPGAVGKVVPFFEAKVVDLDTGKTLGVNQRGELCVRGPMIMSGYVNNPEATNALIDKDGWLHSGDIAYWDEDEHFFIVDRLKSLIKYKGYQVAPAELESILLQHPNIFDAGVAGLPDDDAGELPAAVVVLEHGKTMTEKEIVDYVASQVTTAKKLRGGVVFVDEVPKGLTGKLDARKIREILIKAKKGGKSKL
A short description of assay [11]: cells. In kind it is functional, cell-based. This is another data set of the same source.
Assay [12] can be described thus: loss of viability in HepG2 cells – cell-based, CellTiter-Glo, cherry-picked, cytotoxicity control for Shn3 inhibitor project, dose response (AID 624134). The format is functional. Background: ATP-based viability assays read luminescence as a measure of living cells.
For the next assay, the target named is T1, Coagulation factor XII (Homo sapiens, UniProt P00748).
T1 sequence (P00748 whole entry): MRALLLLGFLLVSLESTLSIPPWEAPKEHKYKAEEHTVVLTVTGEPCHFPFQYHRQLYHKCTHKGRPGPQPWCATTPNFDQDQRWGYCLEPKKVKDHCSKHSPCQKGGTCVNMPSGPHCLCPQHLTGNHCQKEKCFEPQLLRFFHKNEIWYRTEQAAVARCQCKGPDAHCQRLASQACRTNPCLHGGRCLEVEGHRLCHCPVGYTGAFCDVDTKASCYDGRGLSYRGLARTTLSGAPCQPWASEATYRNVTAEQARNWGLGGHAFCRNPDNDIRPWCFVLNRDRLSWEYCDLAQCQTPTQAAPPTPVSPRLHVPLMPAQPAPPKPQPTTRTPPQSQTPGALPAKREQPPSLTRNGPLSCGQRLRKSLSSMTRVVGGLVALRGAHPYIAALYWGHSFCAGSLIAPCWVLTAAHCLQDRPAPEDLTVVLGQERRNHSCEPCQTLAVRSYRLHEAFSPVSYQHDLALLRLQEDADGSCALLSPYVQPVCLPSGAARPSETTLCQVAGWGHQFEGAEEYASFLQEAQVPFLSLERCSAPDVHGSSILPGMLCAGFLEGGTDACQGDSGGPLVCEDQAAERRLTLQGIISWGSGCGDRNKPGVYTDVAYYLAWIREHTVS
The experiment in a line: activated coagulation factor XII inhibitor potency, concentration-effect curve, cell-free (AID 716). The format is functional.

Assay [13] can be described thus: non-specific 3'UTR reporter inhibition in Clone20-Shn3RL – cell-based, Renilla luciferase, cherry-picked, counter-screen for Shn3 inhibitor project, dose response (AID 624133). The format is functional.
A short description of assay [14]: ATP-based viability loss in HEK293T cells – cell-based, CellTiter-Glo luminescence, dry powder, set 2, cytotoxicity control, dose response (AID 720595). The settings on record: HEK293. The format is functional.
Another assay concerns Streptococcus. Nature of the assay: GAS UMAA2166 growth inhibition – luminescence, BacTiterGlo, counter-screen for streptokinase expression inhibitor project, dose response (AID 1915).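 Also: potency for reduction of bacterial viability or growth.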 The format is functional, organism-based.
Assay [15] in a line: ATP-based viability loss in HepG2 cells – cell-based, CellTiter-Glo luminescence, dry powder, set 3, cytotoxicity control, dose response (AID 720594). The format is functional.
Assay [16] is described as follows: NIH-3T3 fibroblast cytotoxicity, dose response, cytotoxicity control, cell-based, fluorescence, Alamar Blue, secondary assay (AID 2327).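 Also: NIH-3T3 mouse fibroblasts cultured with fluconazole at 8 µg/mL.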 The format is functional. In general terms: Resazurin is reduced to fluorescent resorufin, in cell work by metabolically active cells.
Assay [17] in a line: reduction of Shn3 3'UTR-driven luciferase in osteoblasts – cell-based, Clone20 osteoblasts, firefly luciferase, cherry-picked, dose response (AID 624132).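 Also: firefly luciferase luminescence from reporter carrying the Shn3 3'UTR in osteoblasts.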 In kind it is functional.
Assay [18] in a line: general mammalian cell viability loss – inhibitor set, cherry-pick, set 2, cytotoxicity control for miR-122 modulator project, dose response (AID 720697). In kind it is functional, cell-based.
Assay [19] concerns the target T2, Microphthalmia-associated transcription factor (Homo sapiens, UniProt O75030).
T2 sequence (O75030 whole entry): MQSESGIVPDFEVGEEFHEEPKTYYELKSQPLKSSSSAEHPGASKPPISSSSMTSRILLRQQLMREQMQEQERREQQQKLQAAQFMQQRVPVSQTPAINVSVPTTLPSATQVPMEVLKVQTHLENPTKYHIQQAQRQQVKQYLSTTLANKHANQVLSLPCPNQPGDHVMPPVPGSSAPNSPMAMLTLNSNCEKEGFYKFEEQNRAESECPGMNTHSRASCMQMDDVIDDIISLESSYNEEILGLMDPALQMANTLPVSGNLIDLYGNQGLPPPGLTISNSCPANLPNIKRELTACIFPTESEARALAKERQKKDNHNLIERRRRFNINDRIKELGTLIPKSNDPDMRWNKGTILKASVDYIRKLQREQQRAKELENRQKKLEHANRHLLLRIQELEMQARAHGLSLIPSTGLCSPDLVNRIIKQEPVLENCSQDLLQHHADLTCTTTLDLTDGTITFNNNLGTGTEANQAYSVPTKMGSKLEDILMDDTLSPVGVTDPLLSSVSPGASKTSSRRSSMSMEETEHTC
The experiment in a line: reducers of TRPM1 reporter luminescence, concentration series – cell-based, SK-MEL-5, cherry-picked, set 3, MITF inhibitor project, dose response (AID 493073).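 Also: SK-MEL-5 melanoma cells with luciferase driven by the MITF target TRPM1 promoter.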 In kind it is functional.

A short description of assay [20]: fluconazole-exposed Candida albicans growth modulators – fluorescence, retest, confirmation (AID 2467). In kind it is functional, cell-based.
The nature of assay [21]: general mammalian cell viability loss – activator set, cherry-pick, cytotoxicity control for miR-122 modulator project, dose response (AID 720690).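 Also: HEK293T human cells scored for general mammalian cytotoxicity.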 In kind it is functional, cell-based.
Assay [22] in a line: ATP-based viability loss in HeLa cells – cell-based, CellTiter-Glo luminescence, dry powder, set 2, cytotoxicity control, dose response (AID 720593). The format is functional.
A short description of assay [23]: Trypanosoma cruzi replication inhibitors in host cells – cell-based, plate reader, dry powder samples, dose response (AID 651845). The format is functional.
The nature of assay [24]: intracellular Trypanosoma cruzi inhibitors in host cells – cell-based, plate reader, cherry-pick samples, set 3, dose response (AID 651818).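 Also: compounds incubated with infected cells for about four days.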 The format is functional.
A short description of assay [25]: antimalarial activity against erythrocytic parasites – NF54 strain, plate reader, dry powder, dose response (AID 651889). In kind it is functional, cell-based.
Assay [26] in a line: host muscle cell viability loss – plate reader, dry powder, counter-screen for T. cruzi inhibitor project, dose response (AID 651895). The format is functional, cell-based.
Assay [27] is described as follows: intracellular Chagas parasite inhibition in myoblasts – Tulahuen strain, L-6 host cells, dry powder, dose response (AID 651890). The format is functional, cell-based.
A short description of assay [28]: L6 myocyte viability loss – cell-based, plate reader, cherry-pick, cytotoxicity control, dose response (AID 651896). In kind it is functional.
A short description of assay [29]: African trypanosome bloodstream form growth inhibition – STIB900 strain, plate reader, cherry pick, dose response (AID 651893). In kind it is functional, cell-based, Trypanosoma brucei rhodesiense. The following applies: Trypanosoma brucei.
Assay [30] can be described thus: antileishmanial activity on axenic amastigotes – plate reader, dry powder, dose response (AID 651892). In kind it is functional, cell-based.
Assay [31] can be described thus: T. cruzi growth inhibition in host cells, dose response, cell-based, plate reader, dry powder, set 2 (AID 652275). The format is functional.
A short description of assay [32]: anti-trypanosomal activity in BESM host cells – imaging, CA-I/72 strain, bovine embryo skeletal muscle, dry powder, dose response (AID 651885). In kind it is functional, cell-based.
A short description of assay [33]: African trypanosome bloodstream form growth inhibition – STIB900 strain, plate reader, dry powder, dose response (AID 651894). The format is functional, cell-based.
Assay [34] can be described thus: antileishmanial activity on axenic amastigotes – plate reader, cherry pick, dose response (AID 651891). In kind it is functional, cell-based. The settings on record: Leishmania donovani.
Assay [35] has as its target NAD-dependent protein deacylase sirtuin-5, mitochondrial (Homo sapiens, UniProt Q9NXA8). The experiment in a line: sirtuin-5 deacylation blockers, concentration series – biochemical, fluorescence imaging, cherry-pick, set 5, dose response (AID 720591).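 Also: desuccinylation of succinyl peptide AMC substrate read as fluorescence after trypsin release; potency of inhibitors that lower fluorescence and may act on trypsin instead.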
Assay [36] can be described thus: OV-90 cell viability loss – plate reader, dry powder, SA8, PAX8 inhibitor project, dose response (AID 743149). The format is functional, cell-based.
A short description of assay [37]: inhibitors acting on PAX2 in cells – cell-based, plate reader, dry powder samples, selectivity assay for PAX8 inhibitor project, dose response (AID 743048).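 Also: HEK293 cells carrying a WT1 promoter luciferase reporter driven by expressed Pax2; potency is for inhibition of Pax2 driven reporter signal.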 The format is functional.
Assay [38] in a line: COV434 cell viability loss – plate reader, dry powder, SA7, cytotoxicity control for PAX8 inhibitor project, dose response (AID 743145). The format is functional, cell-based.
A short description of assay [39]: PAX5 cellular inhibition readout – cell-based, plate reader, dry powder samples, selectivity assay for PAX8 inhibitor project, dose response (AID 743047).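 Also: HEK293 cells carrying a Pax5 driven CD19 promoter luciferase reporter; potency of inhibitors that lower reporter luminescence.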 The format is functional.
Assay [40] is described as follows: PAX8-dependent cell viability loss – plate reader, dry powder, dose response (AID 743049). In kind it is functional, cell-based.

Chain of Paired box protein Pax-8 (Q06710 whole entry): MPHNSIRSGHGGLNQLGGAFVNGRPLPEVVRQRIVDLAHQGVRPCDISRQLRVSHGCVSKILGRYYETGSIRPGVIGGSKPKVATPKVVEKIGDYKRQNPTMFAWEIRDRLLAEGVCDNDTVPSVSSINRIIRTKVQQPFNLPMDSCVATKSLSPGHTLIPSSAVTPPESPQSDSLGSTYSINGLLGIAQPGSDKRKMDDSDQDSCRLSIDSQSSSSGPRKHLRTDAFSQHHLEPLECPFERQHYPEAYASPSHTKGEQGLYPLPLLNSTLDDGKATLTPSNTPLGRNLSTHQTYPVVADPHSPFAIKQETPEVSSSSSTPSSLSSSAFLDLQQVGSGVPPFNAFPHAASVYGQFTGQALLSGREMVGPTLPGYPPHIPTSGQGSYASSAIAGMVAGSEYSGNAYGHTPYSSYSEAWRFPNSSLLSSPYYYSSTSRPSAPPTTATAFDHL
Chain of NAD-dependent protein deacylase sirtuin-5, mitochondrial (Q9NXA8 whole entry): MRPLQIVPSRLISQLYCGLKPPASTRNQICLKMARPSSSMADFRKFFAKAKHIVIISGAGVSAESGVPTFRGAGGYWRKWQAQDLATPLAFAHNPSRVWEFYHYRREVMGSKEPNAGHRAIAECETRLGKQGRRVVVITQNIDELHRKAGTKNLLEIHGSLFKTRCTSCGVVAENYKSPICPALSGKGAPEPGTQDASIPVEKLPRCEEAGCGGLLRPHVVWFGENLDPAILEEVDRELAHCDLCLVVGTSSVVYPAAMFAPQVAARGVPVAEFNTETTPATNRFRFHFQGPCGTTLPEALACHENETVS

Broadly, the AC50 is the concentration giving half of the maximal activity seen. Consider `COc1ccccc1-c1ccc([C@@H]2[C@@H]3CN(S(=O)(=O)c4ccc(-c5ccccc5)cc4)C[C@H]2N3)cc1`, for which the AC50 was 23.3 µM (active) on Paired box protein Pax-8; 10.6 µM (active) in assay [1]; 0.302 µM (active) in assay [2]; 49.5 µM (active) in assay [3]; 33.6 µM (active) in assay [4]; 2.6 µM (active) in assay [5]. Also, the AC50 in [6] is 9.34 µM (active); in assay [7] it was 56 µM (active).

A word on the EC50: it is the concentration giving half of the maximal effect. As a reminder, the IC50 is the concentration that inhibits the measured activity by half. Consider `CC(C)C(=O)NC(c1ccco1)c1ccc2cccnc2c1O` (stereo not given), for which the EC50 was 3.15 µM (active) in assay [8]; 16.5 µM (active) in “cells [9]”; > 50 µM (not active) in the assay with HT-1080; 38.8 µM (active) in assay [10]; > 350 µM (not active) in “cells [11]”; 3.87 µM (active) in the assay on Streptococcus. The EC50 in [16] was 4.72 µM (inconclusive); in assay [20], 1.6 µM (active). Further, the AC50 in [12] was 3.1 µM (active); in [13] it was 4.36 µM (active); in [14] it was 6.24 µM (active); in assay [15], > 52 µM (inactive); in assay [17], 2.05 µM (active); in assay [18] it was 3.72 µM (active). Moreover, the AC50 in assay [19] is 8.18 µM (active); in assay [21], 5 µM (active); in [22], > 52 µM (inactive). Moreover, the IC50 at Coagulation factor XII is > 50 µM (inactive).

As to `C[C@@H]1CN([C@H](C)CO)C(=O)c2cccc(NC(=O)c3ccncc3)c2O[C@@H]1CN(C)Cc1ccc(Oc2ccccc2)cc1`, the figures for the AC50 in assay [23], in [24] and in assay [31] were 0.286 µM (active), 1.05 µM (active) and 0.309 µM (active), respectively. Besides, the IC50 in assay [25] is 2.23 µM (inactive); in assay [26] it was 64.6 µM (inactive); in assay [27], 1.16 µM (active); in assay [28], 44.2 µM (inactive); in assay [29] it was 2.63 µM (inactive); in assay [30], > 100 µM (inactive). The IC50 in [32] is 2 µM (active); in assay [33] it was 1.31 µM (inactive); in assay [34], > 100 µM (inactive).

In the case of `O=C(NC(c1ccc(Cl)cc1)c1cnccn1)C1CCN(Cc2ccc(Cl)cc2)CC1` (stereo not given), the AC50 in assay [35] is > 30 µM (inactive).

With `COc1cccc(C#Cc2ccc([C@H]3[C@@H](CO)N(C(=O)c4ccccn4)[C@H]3C#N)cc2)c1`, the AC50 was 2.41 µM (active) on Paired box protein Pax-8; 24.1 µM (active) in [36]; 9.59 µM (active) in [37]; 18.4 µM (active) in assay [38]; > 39 µM (inactive) in assay [1]; 17.8 µM (active) in assay [3]. The AC50 was 7.82 µM (active) in assay [39]; 14.6 µM (active) in [4]; 1.27 µM (active) in [5]; 51.4 µM (active) in assay [7]; 10.4 µM (active) in [40].
